Measurements as given in publication PMC4506557 (Chemmedchem, 2014).

Legend:
Format in all cases: biochemical
Details in all cases: at 10 μM; single dose, triplicate
MMP-7 = MMP-7 fluorometric FRET protease assay
MMP-9 = MMP-9 fluorometric FRET protease assay
MMP-14 = MMP-14 fluorometric FRET protease assay
MMP-3 = MMP-3 fluorometric FRET protease assay
MMP-12 = MMP-12 fluorometric FRET protease assay
MMP-8 = MMP-8 fluorometric FRET protease assay
MMP-1 = MMP-1 fluorometric FRET protease assay
MMP-2 = MMP-2 fluorometric FRET protease assay

O=C(O)CCCOc1cccc(CNC(=O)C#Cc2cn(Cc3ccc(C(=O)O)cc3)c(=O)[nH]c2=O)c1 [Compound 4, 4-({5-[2-({[3-(3-carboxypropoxy)phenyl]methyl}carbamoyl)eth-1-yn-1-yl]-2,4-dioxo-1,2,3,4-tetrahydropyrimidin-1-yl}methyl)benzoic acid]
<50 % inhibition at 10 μM: MMP-7 inhibition (MMP-7) | MMP-9 inhibition (MMP-9) | MMP-14 inhibition (MMP-14) | MMP-3 inhibition (MMP-3) | MMP-12 inhibition (MMP-12) | MMP-8 inhibition (MMP-8) | MMP-1 inhibition (MMP-1) | MMP-2 inhibition (MMP-2)
